In doi:10.1101/2023.03.24.534094v2 (biorxiv, 2023):
Like-named read-outs stand apart in the source and are kept apart here. Each block holds one compound with its values, some of them ahead of it.

Tests used:
Test in all cases: biochemical
[1] = target: CDKL1 (Homo sapiens, UniProt Q00532)
[2] = target: T1, DRAK2 (Homo sapiens, UniProt O94768)
T1 sequence (O94768 1-372): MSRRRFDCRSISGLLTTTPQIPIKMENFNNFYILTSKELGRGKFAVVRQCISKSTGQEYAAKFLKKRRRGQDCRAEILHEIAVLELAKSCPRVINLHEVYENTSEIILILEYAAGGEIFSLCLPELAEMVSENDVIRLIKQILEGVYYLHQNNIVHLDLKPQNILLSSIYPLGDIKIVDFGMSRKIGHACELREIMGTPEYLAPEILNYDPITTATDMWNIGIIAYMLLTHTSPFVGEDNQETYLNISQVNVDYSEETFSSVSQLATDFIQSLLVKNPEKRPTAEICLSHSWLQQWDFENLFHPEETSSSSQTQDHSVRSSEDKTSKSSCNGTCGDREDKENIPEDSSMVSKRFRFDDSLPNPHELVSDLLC

[3] = target: T2, BMX (Homo sapiens, UniProt P51813)
T2 sequence (P51813 1-675): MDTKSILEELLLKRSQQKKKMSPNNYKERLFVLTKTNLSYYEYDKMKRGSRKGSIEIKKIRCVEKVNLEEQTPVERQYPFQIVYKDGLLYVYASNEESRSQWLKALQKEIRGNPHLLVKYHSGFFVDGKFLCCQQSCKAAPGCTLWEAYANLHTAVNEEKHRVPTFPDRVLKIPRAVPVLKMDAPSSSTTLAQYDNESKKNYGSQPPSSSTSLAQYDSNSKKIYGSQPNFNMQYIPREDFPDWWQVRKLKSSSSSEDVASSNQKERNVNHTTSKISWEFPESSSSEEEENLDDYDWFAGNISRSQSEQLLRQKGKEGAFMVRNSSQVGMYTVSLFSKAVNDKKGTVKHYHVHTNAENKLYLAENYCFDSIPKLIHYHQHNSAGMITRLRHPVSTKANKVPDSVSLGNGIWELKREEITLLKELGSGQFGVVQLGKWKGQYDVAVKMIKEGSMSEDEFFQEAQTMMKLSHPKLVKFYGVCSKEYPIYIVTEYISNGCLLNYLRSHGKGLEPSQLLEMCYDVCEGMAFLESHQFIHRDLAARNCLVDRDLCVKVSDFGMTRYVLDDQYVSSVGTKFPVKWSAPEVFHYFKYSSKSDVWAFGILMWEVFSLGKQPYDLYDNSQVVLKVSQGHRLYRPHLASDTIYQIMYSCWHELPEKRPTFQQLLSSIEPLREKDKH

[4] = target: PAK4 (Homo sapiens, UniProt O96013)
[5] = target: EpHA4 (Homo sapiens, UniProt P54764)
[6] = target: ABL1 (Homo sapiens, UniProt P00519)
[7] = target: OSR1 (Homo sapiens, UniProt O95747)
[8] = target: T3, CaMK4 (Homo sapiens, UniProt Q16566)
T3 sequence (Q16566 1-473): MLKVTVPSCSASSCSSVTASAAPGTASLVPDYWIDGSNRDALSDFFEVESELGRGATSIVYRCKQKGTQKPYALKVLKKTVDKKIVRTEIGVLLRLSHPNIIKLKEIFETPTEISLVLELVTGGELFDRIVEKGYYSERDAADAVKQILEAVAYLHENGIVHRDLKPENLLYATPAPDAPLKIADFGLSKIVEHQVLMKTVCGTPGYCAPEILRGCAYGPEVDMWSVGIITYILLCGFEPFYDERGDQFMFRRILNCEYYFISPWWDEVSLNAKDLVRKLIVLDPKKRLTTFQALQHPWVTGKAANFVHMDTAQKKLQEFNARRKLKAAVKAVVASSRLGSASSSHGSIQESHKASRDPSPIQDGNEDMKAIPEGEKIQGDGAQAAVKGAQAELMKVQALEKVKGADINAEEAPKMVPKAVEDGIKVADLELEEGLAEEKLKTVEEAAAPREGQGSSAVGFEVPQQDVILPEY

[9] = target: Erk2 (Homo sapiens, UniProt P28482)
Erk2, sequence (P28482 whole entry): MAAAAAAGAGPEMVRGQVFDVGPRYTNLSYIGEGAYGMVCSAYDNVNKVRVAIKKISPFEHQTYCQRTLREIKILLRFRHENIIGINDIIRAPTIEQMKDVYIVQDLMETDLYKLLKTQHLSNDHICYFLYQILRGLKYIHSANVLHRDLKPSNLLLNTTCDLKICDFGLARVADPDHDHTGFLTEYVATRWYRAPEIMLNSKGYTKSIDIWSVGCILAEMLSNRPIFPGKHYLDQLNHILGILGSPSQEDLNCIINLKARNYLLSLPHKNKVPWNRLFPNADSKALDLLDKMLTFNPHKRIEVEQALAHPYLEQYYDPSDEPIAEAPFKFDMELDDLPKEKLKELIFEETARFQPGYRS

OSR1, sequence (O95747 whole entry): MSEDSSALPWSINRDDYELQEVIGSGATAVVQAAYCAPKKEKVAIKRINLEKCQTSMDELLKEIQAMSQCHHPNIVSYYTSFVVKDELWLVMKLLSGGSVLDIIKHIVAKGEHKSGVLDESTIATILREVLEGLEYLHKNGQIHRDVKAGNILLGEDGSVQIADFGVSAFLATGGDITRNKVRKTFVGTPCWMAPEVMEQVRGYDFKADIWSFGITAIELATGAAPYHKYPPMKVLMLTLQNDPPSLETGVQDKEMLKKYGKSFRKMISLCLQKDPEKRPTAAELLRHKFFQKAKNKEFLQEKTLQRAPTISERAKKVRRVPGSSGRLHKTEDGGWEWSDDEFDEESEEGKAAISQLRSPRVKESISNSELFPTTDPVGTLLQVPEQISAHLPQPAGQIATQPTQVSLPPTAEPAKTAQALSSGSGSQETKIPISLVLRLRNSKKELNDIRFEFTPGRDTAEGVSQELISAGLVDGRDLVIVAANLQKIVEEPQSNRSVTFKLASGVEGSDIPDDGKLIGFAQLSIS
CDKL1, sequence (Q00532 whole entry): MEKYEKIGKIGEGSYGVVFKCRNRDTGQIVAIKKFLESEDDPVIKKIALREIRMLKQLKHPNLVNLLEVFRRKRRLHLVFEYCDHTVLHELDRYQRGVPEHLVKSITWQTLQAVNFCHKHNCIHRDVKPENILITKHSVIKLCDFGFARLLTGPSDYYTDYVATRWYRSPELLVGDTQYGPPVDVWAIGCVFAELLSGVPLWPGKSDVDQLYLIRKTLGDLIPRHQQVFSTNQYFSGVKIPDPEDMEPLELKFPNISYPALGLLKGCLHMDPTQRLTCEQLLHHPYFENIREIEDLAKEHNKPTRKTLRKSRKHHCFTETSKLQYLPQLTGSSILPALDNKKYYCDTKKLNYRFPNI
ABL1, sequence (P00519 whole entry): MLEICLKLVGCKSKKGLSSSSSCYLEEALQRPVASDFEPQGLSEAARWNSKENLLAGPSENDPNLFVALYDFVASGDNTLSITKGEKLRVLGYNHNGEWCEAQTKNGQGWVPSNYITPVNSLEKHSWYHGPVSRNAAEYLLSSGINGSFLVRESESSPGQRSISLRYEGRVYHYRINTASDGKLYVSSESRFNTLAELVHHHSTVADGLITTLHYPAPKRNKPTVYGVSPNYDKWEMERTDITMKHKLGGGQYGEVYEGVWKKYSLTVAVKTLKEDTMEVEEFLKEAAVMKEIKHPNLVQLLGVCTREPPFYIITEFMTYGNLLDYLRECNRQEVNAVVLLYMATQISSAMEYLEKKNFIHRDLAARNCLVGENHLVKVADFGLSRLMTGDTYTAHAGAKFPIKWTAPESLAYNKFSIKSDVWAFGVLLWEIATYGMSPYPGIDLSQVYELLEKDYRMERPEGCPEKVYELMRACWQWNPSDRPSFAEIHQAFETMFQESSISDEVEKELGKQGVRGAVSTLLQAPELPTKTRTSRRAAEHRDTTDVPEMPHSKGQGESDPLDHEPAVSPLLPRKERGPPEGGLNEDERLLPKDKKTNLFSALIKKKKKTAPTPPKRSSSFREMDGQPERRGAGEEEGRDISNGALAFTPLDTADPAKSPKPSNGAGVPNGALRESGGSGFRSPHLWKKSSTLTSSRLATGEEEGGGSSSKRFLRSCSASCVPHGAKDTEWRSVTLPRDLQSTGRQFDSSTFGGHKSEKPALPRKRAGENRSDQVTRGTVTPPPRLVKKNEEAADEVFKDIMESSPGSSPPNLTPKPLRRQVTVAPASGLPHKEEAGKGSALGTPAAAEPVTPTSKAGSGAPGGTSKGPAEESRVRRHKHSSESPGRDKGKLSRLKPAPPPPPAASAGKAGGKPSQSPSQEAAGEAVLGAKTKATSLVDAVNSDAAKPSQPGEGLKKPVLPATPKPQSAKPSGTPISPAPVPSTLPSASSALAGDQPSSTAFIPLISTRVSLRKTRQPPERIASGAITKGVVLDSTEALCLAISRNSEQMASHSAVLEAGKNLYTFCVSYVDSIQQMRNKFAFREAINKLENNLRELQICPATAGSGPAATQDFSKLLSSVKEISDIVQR
EpHA4, sequence (P54764 whole entry): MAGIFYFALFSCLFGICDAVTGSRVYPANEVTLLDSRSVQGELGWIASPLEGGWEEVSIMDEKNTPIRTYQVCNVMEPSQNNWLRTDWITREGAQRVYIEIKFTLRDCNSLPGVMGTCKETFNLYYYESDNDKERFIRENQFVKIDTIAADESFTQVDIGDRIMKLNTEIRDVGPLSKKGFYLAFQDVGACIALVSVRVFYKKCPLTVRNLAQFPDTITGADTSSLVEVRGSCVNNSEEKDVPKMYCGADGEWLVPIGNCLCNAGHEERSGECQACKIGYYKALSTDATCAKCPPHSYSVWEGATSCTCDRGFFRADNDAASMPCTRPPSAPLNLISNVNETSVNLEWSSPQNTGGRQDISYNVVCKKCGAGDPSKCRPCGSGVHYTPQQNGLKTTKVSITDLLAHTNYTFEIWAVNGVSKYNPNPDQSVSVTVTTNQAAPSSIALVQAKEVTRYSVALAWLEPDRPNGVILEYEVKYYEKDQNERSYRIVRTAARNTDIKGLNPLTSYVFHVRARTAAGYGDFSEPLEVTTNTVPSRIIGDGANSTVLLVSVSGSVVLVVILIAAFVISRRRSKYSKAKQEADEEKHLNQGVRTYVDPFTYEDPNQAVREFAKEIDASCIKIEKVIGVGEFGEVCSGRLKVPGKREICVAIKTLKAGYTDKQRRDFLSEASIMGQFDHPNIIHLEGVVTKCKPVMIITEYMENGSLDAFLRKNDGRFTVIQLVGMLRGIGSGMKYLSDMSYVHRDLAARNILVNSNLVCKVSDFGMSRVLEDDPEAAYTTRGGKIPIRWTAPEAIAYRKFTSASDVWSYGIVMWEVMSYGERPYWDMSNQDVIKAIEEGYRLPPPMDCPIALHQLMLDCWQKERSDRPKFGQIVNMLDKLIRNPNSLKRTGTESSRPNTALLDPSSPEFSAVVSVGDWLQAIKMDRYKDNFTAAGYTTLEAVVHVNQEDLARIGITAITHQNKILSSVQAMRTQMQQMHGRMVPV
PAK4, sequence (O96013 whole entry): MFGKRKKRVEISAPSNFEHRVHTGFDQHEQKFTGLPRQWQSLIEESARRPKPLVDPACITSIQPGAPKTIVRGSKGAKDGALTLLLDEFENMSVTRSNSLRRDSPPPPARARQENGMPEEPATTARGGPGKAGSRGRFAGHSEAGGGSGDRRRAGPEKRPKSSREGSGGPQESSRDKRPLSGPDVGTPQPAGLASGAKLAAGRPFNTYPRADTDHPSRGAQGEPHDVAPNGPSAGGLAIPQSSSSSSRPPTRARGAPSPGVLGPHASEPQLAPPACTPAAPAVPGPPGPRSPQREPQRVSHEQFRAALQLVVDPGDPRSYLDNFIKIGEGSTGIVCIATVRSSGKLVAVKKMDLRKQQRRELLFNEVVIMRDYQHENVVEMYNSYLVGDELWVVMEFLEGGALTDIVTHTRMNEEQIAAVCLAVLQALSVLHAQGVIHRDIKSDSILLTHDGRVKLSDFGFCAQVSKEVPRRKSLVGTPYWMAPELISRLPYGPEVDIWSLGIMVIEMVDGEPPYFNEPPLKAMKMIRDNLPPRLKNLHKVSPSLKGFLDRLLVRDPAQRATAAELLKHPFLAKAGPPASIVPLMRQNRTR

Structure (SMILES): CNc1ncc2cc(-c3cc(C(F)(F)F)ccc3Cl)c(=O)n(CCCCN)c2n1 [compound 9, 8-(4-Aminobutyl)-6-(2-chloro-5-(trifluoromethyl)phenyl)-2-(methylamino)pyrido[2,3-d]pyrimidin-7(8H)-one]
- ΔTm at 10 µM ([1]; read-out: dTm 9): 0 °C
- ΔTm at 10 µM ([2]; read-out: dTm 9): 0 °C
- ΔTm at 10 µM ([3]; read-out: dTm 9): 3.2 °C
- ΔTm at 10 µM ([4]; read-out: dTm 9): 0.5 °C
- ΔTm at 10 µM ([5]; read-out: dTm 9): 2.9 °C
- ΔTm at 10 µM ([6]; read-out: dTm 9): 2.5 °C
- ΔTm at 10 µM ([7]; read-out: dTm 9): 0.3 °C
- ΔTm at 10 µM ([8]; read-out: dTm 9): 0.1 °C
- ΔTm at 10 µM ([9]; read-out: dTm 9): 0 °C

Structure (SMILES): CNc1ncc2cc(-c3cc(F)c(-c4cccc(C)n4)cc3F)c(=O)n(CCCCN)c2n1 [compound 12, 8-(4-Aminobutyl)-6-(2,5-difluoro-4-(6-methylpyridin-2-yl)phenyl)-2-(methylamino)pyrido[2,3-d]pyrimidin-7(8H)-one]
- ΔTm at 10 µM ([1]; read-out: dTm 12): 0.2 °C
- ΔTm at 10 µM ([2]; read-out: dTm 12): 5.7 °C
- ΔTm at 10 µM ([3]; read-out: dTm 12): 3.6 °C
- ΔTm at 10 µM ([4]; read-out: dTm 12): 1.8 °C
- ΔTm at 10 µM ([5]; read-out: dTm 12): 1.6 °C
- ΔTm at 10 µM ([6]; read-out: dTm 12): 3.5 °C
- ΔTm at 10 µM ([7]; read-out: dTm 12): -0.2 °C
- ΔTm at 10 µM ([8]; read-out: dTm 12): 2.9 °C
- ΔTm at 10 µM ([9]; read-out: dTm 12): -1.8 °C

The remaining lines, values ahead:

- ΔTm at 10 µM ([1]; read-out: dTm 11): 0.4 °C
- ΔTm at 10 µM ([2]; read-out: dTm 11): 0 °C
- ΔTm at 10 µM ([3]; read-out: dTm 11): 4.2 °C
- ΔTm at 10 µM ([4]; read-out: dTm 11): 1.1 °C
- ΔTm at 10 µM ([5]; read-out: dTm 11): 4.3 °C
- ΔTm at 10 µM ([6]; read-out: dTm 11): 4.8 °C
- ΔTm at 10 µM ([7]; read-out: dTm 11): 0.4 °C
- ΔTm at 10 µM ([8]; read-out: dTm 11): 0.1 °C
- ΔTm at 10 µM ([9]; read-out: dTm 11): 0.1 °C
Structure (SMILES): CNc1ncc2cc(-c3cc(Br)ccc3Br)c(=O)n(CCCCN)c2n1 [compound 11, 8-(4-Aminobutyl)-6-(2,5-dibromophenyl)-2-(methylamino)pyrido[2,3-d]pyrimidin-7(8H)-one]

- ΔTm at 10 µM ([1]; read-out: dTm 8): 0.2 °C
- ΔTm at 10 µM ([2]; read-out: dTm 8): 0.1 °C
- ΔTm at 10 µM ([3]; read-out: dTm 8): 4 °C
- ΔTm at 10 µM ([5]; read-out: dTm 8): 4.7 °C
- ΔTm at 10 µM ([6]; read-out: dTm 8): 6.2 °C
- ΔTm at 10 µM ([7]; read-out: dTm 8): 0.3 °C
- ΔTm at 10 µM ([8]; read-out: dTm 8): 0.1 °C
- ΔTm at 10 µM ([9]; read-out: dTm 8): 0.1 °C
Structure (SMILES): CNc1ncc2cc(-c3cc(Cl)ccc3Cl)c(=O)n(CCCCN)c2n1 [compound 8, 8-(4-Aminobutyl)-6-(2,5-dichlorophenyl)-2-(methylamino)pyrido[2,3-d]pyrimidin-7(8H)-one]

- ΔTm at 10 µM ([1]; read-out: dTm 10): 0.3 °C
- ΔTm at 10 µM ([2]; read-out: dTm 10): 0.1 °C
- ΔTm at 10 µM ([3]; read-out: dTm 10): 3.9 °C
- ΔTm at 10 µM ([4]; read-out: dTm 10): 1.3 °C
- ΔTm at 10 µM ([5]; read-out: dTm 10): 5.1 °C
- ΔTm at 10 µM ([6]; read-out: dTm 10): 6.2 °C
- ΔTm at 10 µM ([7]; read-out: dTm 10): -0.2 °C
- ΔTm at 10 µM ([8]; read-out: dTm 10): 0.1 °C
- ΔTm at 10 µM ([9]; read-out: dTm 10): 0.1 °C
Structure (SMILES): CNc1ncc2cc(-c3cc(Cl)ccc3Br)c(=O)n(CCCCN)c2n1 [compound 10, 8-(4-Aminobutyl)-6-(2-bromo-5-chlorophenyl)-2-(methylamino)pyrido[2,3-d]pyrimidin-7(8H)-one]
